US20120178815A1, “Compositions of (-)-E-10-OH-NT and Methods for Their Synthesis and Use” (Adolor Corporation, priority 2007, published 2012)
Like-named read-outs stand apart in the source and are kept apart here.

Key:
α1b adrenergic receptor = biological target: T1, α1b adrenergic receptor (Homo sapiens, UniProt P35368); test: α1b adrenergic receptor binding, [3H]prazocine
T1 construct: expressed in transfected cells; host or cells: CHO cells (membranes)
T1 sequence (P35368 1-520): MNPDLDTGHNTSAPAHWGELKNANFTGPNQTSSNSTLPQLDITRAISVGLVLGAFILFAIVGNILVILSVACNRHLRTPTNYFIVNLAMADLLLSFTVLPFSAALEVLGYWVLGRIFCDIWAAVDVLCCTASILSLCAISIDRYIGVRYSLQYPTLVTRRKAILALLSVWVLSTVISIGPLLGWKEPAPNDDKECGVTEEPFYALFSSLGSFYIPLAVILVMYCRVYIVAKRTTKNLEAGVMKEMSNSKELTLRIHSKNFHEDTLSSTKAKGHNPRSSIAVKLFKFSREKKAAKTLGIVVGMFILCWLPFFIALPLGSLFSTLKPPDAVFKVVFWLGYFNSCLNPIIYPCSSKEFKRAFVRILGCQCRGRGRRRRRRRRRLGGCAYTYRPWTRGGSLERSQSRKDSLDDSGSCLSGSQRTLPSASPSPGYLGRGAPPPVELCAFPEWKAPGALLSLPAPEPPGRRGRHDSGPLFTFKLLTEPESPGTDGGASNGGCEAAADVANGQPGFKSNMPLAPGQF
Description: Affinity for the α1b adrenergic receptor was tested using membranes prepared from Chinese hamster ovary (CHO) cells heterologously expressing the cloned human receptor that were incubated with [^3H]prazocine (0.15 nM) in the presence of various concentrations of test compounds for 1 hour at 22° C. Nonspecific binding was determined in the presence of 10 μM phentolamine. Bound radioactivity was determined by scintillation spectroscopy.

[1] = biological target: T2, human serotonin transporter (hSERT) (Homo sapiens, UniProt P31645); test: 5HT transporter competitive binding assay, [3H]imipramine
T2 construct: expressed in transfected cells; host or cells: CHO cells (membranes)
Description: (§1) Bound radioactivity was determined by scintillation spectroscopy. […] The Ki values of the various test compounds were determined using standard methods.
as §1

[2] = biological target: T3, human muscarinic receptor M5 (Homo sapiens, UniProt P08912); test: Muscarinic M5 receptor binding, [3H]4-DAMP; details: read-out: Affinity for Muscarinic Receptors, M5, Ki
T3 construct: expressed in transfected cells; host or cells: CHO cells (membranes)
T3 sequence (P08912 1-532): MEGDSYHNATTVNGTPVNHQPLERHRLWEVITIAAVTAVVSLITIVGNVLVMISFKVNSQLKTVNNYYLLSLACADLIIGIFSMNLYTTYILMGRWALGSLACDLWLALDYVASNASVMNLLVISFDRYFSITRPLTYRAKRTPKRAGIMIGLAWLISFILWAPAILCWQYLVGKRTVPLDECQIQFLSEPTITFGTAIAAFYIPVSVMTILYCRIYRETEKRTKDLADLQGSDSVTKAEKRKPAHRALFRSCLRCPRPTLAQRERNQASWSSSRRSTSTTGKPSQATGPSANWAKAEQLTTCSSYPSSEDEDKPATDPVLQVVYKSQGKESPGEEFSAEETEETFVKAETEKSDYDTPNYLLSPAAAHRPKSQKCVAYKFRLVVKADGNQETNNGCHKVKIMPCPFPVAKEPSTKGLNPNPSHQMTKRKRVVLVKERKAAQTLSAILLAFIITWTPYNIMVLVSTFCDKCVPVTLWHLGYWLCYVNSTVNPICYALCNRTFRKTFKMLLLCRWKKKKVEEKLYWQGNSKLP
Description: Protocol. The affinities of AT, NT (+)-E-10-OH-NT and (−)-E-10-OH-NT for muscarinic receptors M1, M2, M3, M4 and M5 were determined with membranes prepared from CHO cells heterologously expressing the cloned human muscarinic receptors M1, M2, M3, M4 and M5. For the assays, membranes and radiolabelled ligand were incubated with various concentrations of test compounds for 1 hour at 22° C. Bound radioactivity was determined by scintillation spectroscopy. Non-specific binding was defined as the amount of bound radioligand in the presence of 1.0 μM atropine. Radioligand for the M1 receptor was [^3H]pirenzepine (2 nM). Radioligand for the M2 receptor was [^3H]AF-DX384 (2 nM). Radioligand for the M3, M4, and M5 receptors was [^3H]4-DAMP.

CYP2C19 = biological target: T4, CYP2C19 (Homo sapiens, UniProt P33261); test: CYP2C19 inhibition, DBF substrate; type: in vitro ADME; details: average of six replicate experiments; for inhibition at 10 µM: human, microsomes containing human recombinant CYP2C19, probe dibenzylfluorescein (DBF), 10 μM test compound, read-out: Inhibition of CYPD2C19, % inhib. at 10 μM; for IC50: 95% confidence limits in parentheses, read-out: Inhibition of CYPD2C19, IC50
T4 construct: purchased BD Biosciences (San Jose, Calif.)
Description: CYP2C19 activity was measured using dibezylflourescein (DBF) as substrate. The source of enzyme was microsomes containing human recombinant CYP2C19 obtained from BD Biosciences (San Jose, Calif.). Conversion of DBF to fluorescein was measured using a PerkinElmer Fusion with a 485 nm excitation filter and a 535 nm emission filter.

α2c adrenergic receptor = biological target: T5, α2c adrenergic receptor (Homo sapiens, UniProt P18825); test: α2c adrenergic receptor binding, [3H]RX821002; details: for inhibition at 10 µM: read-out: α2c adrenergic receptor, % inhib. at 10 μM
T5 construct: expressed in transfected cells; host or cells: CHO cells
T5 sequence (P18825 1-462): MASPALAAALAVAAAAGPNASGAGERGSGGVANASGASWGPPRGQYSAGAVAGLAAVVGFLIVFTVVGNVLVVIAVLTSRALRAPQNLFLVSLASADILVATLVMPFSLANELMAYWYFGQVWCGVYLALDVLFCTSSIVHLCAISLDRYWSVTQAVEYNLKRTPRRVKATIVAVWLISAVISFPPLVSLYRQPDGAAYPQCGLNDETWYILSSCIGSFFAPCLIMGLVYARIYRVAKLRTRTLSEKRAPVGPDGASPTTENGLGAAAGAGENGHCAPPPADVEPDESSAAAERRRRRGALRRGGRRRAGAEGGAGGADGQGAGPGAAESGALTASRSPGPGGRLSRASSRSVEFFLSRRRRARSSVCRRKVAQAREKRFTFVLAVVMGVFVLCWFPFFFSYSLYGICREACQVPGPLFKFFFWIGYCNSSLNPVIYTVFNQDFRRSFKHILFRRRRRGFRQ
Description: Nonspecific binding was determined in the presence of 100 μM (−)-epinephrine. Bound radioactivity was determined by scintillation spectroscopy.

[3] = biological target: T6, 5HT uptake, rat brain synaptosomes (Rattus norvegicus, UniProt P31652); test: Inhibition of [3H]-5HT uptake into synaptosomes; type: biochemical; details: read-out: Monoamine Uptake Inhibition, 5HT, IC50
T6 construct: into rat brain synaptosomes; from tissue; host or cells: rat brain synaptosomes

[4] = biological target: human NE transporter (hNET) (Homo sapiens, UniProt P23975); test: NE transporter competitive binding assay, [3H]nisoxetine
Description: (§2) Protocol. […] Bound radioactivity was determined by scintillation spectroscopy. Non-specific binding was defined as the amount of binding that occurred in the presence of 1.0 μM desipramine. The Ki values of the various test compounds were determined using standard methods.
as §2

[5] = read-out: Affinity at α1b adrenergic receptor, Ki
[6] = Example 4, read-out: Monoamine Transporter Affinity, 5HT, Ki
[7] = Example 4, read-out: Monoamine Transporter Affinity, NE, Ki

T4 sequence (P33261 whole entry): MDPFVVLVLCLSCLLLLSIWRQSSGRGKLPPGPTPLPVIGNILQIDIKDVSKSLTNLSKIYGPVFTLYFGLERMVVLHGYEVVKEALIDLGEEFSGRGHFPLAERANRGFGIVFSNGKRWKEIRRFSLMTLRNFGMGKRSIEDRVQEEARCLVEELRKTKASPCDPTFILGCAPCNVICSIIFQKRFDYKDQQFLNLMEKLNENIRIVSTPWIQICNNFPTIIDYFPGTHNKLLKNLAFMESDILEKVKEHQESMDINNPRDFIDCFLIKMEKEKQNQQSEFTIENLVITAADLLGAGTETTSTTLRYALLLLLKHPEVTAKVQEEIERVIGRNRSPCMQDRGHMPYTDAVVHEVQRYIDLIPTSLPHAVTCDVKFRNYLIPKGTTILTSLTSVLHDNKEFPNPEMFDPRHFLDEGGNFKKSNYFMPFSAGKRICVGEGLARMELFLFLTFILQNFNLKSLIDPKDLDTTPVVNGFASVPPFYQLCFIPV
T2 sequence (P31645 whole entry): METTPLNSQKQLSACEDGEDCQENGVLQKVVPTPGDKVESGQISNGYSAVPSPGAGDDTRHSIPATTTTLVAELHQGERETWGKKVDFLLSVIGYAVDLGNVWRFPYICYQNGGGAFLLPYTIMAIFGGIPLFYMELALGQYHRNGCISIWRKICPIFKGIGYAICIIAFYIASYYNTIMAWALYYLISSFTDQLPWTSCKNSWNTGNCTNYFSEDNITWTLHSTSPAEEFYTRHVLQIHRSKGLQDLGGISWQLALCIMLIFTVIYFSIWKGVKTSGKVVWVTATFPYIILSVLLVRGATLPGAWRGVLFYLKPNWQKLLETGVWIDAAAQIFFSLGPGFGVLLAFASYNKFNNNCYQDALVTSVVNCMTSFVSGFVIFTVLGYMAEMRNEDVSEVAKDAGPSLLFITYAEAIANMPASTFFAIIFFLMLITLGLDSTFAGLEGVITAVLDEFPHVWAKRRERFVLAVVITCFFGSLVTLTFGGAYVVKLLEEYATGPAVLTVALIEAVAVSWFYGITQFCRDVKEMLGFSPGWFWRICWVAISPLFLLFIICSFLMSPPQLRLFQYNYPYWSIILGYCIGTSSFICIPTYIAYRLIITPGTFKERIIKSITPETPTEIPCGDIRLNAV
Chain of human NE transporter (hNET) (P23975 whole entry): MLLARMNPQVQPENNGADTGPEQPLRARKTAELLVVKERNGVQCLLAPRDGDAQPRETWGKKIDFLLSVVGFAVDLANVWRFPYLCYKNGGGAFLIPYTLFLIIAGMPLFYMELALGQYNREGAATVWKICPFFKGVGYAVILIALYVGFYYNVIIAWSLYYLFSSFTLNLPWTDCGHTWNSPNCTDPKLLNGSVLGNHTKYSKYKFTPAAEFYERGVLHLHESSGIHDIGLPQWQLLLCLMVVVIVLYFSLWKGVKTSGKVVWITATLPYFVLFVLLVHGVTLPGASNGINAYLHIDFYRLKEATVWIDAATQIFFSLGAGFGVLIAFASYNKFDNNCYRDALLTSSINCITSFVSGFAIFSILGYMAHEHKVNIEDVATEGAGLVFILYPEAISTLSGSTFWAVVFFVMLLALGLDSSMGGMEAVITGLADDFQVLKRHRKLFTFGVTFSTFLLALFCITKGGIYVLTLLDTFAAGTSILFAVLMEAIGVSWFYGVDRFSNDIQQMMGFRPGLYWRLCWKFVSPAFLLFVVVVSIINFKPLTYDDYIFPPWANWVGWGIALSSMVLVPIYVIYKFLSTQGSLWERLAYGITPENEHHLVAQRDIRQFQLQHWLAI
T6 sequence (P31652 whole entry): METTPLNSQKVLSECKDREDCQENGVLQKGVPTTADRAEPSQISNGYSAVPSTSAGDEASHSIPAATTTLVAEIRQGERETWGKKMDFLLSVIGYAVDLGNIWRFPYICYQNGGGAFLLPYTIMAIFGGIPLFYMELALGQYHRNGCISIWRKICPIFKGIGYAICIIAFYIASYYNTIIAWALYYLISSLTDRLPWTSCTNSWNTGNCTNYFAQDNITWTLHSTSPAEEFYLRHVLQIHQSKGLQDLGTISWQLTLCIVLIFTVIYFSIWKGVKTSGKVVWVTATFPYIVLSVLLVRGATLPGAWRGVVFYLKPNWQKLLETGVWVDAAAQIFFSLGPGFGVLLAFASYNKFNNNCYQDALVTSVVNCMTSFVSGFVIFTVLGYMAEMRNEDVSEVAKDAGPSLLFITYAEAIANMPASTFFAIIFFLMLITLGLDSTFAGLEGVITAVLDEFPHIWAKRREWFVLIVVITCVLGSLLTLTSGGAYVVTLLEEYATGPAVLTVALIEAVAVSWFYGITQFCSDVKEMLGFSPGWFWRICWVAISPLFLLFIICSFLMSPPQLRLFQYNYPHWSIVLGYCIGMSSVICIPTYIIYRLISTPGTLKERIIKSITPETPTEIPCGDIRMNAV

SMILES | Ki (α1b adrenergic receptor; [5]) [nM] | Ki [1, 6] [nM] | Ki ([1]; Example 14, read-out: SERT Ki) [nM] | Ki [2] [nM] | inhibition at 10 µM (CYP2C19) [%] | inhibition at 10 µM (α2c adrenergic receptor) [%] | IC50 [3] [nM] | Ki [4, 7] [nM] | Ki ([4]; Example 14, read-out: NET Ki) [nM] | IC50 (CYP2C19) [nM] | Ki (α2c adrenergic receptor; read-out: Affinity at α2c adrenergic receptor, Ki) [nM] | Ki (α1b adrenergic receptor) [nM]
CNCC/C=C1\c2ccccc2C[C@H](O)c2ccccc21 (stereo in doubt) [(+)-E-10-OH-NT] | 690 | 400 | 361 | 280 | 20 | 35 | 860 | 52 | 95 | – | – | –
CNCC/C=C1\c2ccccc2C[C@@H](O)c2ccccc21 (stereo in doubt) [(−)-E-10-OH-NT] | 2600 | 660 | 617 | 150 | 24 | 30 | 4400 | 44 | 81 | – | – | –
CN(C)CCC=C1c2ccccc2CCc2ccccc21 [AT, amitriptyline, reference compound] | 5.9 | – | – | 3.5 | – | – | – | – | – | 3500 | 13 | –
CNCCC=C1c2ccccc2CCc2ccccc21 [NT, nortriptyline, reference compound] | – | – | – | 15 | – | – | – | – | – | 1500 | – | 21
